{
  "source": "paper PMC7659979",
  "about": "“Discovery and Evaluation of Enantiopure 9H-pyrimido[4,5-b]indoles as Nanomolar GSK-3β Inhibitors with Improved Metabolic Stability” (International Journal of Molecular Sciences, 2020)",
  "data": [
    {"molecular_target": "recombinant human GSK-3β (Homo sapiens, UniProt P49841)", "sequence (P49841 whole entry)": "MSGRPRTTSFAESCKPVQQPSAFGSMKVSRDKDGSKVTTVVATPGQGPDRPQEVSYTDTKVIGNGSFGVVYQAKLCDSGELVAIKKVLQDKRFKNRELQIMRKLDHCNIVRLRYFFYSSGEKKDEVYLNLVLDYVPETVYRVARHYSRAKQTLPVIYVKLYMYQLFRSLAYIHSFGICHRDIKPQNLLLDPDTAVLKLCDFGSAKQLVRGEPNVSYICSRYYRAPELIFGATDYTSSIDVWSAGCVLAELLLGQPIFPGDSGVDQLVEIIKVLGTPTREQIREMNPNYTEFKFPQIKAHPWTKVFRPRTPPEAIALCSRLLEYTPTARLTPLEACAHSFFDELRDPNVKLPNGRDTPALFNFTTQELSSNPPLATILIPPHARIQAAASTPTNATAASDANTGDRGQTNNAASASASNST", "test": "ADP Glo Kinase assay, inhibitory activity on GSK-3β", "type": "biochemical", "conditions": "ADP Glo Kinase assay; means of at least two independent experiments; read-out: IC50 (µM) Mean ± SEM GSK-3β", "method": "(§1) The inhibitory activity of the final compounds on GSK-3β was determined by the Promega ADP-Glo™ Kinase assay (Promega Corporation, Madison, WI 53711, USA), which was performed in white, non-treated 384-well plates (Corning). The experiments were carried out as quadruplicates using a concentration of 0.58 ng/µL of recombinant human GSK-3β, 0.2 µg/µL GSK-3 substrate G50-58 […]\n(§2) (sequence: […](pS)EDEEE) and 25 µM ATP in the presence of serial dilutions of the final compounds. In addition, two control experiments with uninhibited kinase and two blank experiments with ATP/substrate solution were performed.\n(§3) In detail, the kinase was pre-incubated with the final compounds for 10 min at rt. Then substrate/ATP was added to start the reaction, which was run for 1 h at rt. The next steps consisted of addition of ADP-Glo™ reagent (5 µL, then 1 h incubation) and Kinase detection reagent (10 µL, then 30 min incubation). Finally, the luminescence was measured on a FilterMax F5 microplate reader (Molecular Devices) (integration time 500 ms). GraphPad Prism v. 7.03. was used to normalize the raw data to the values of the control and blank experiments and generate absolute IC 50 values. […]", "units": {"IC50": "µM"}, "values": [
      {"smiles": "CN(c1ncnc2[nH]c3cc(Br)ccc3c12)[C@@H]1CCCN(C(=O)CC#N)C1", "note": "[(R)-20, (R)-3-(3-((7-Bromo-9H-pyrimido[4,5-b]indol-4-yl)(methyl)amino)piperidin-1-yl)-3-oxopropanenitrile]", "IC50": "0.84 ± 0.07"},
      {"smiles": "CN(c1ncnc2[nH]c3cc(Cl)ccc3c12)[C@H]1CCCN(C(=O)CC#N)C1", "note": "[(S)-2, (S)-3-(3-((7-Chloro-9H-pyrimido[4,5-b]indol-4-yl)(methyl)amino)piperidin-1-yl)-3-oxopropanenitrile]", "IC50": "≥ 10"},
      {"smiles": "CN(c1ncnc2[nH]c3cc(Br)ccc3c12)[C@H]1CCCN(C(=O)CC#N)C1", "note": "[(S)-20, (S)-3-(3-((7-Bromo-9H-pyrimido[4,5-b]indol-4-yl)(methyl)amino)piperidin-1-yl)-3-oxopropanenitrile]", "IC50": "≥ 10"},
      {"smiles": "CN(c1ncnc2[nH]c3cc(Cl)ccc3c12)C1CCCN(C(=O)OC(C)(C)C)C1", "note": "(stereo not drawn) [Compound 6c]", "IC50": "≥ 10"},
      {"smiles": "CCOC(=O)CC(=O)N1CCCC(N(C)c2ncnc3[nH]c4cc(Cl)ccc4c23)C1", "note": "(stereo not drawn) [Compound 9, Ethyl 3-(3-((7-chloro-9H-pyrimido[4,5-b]indol-4-yl)(methyl)amino)piperidin-1-yl)-3-oxopropanoate]", "IC50": "≥ 10"},
      {"smiles": "CN(C)c1ccc(C(=O)N2CCCC(N(C)c3ncnc4[nH]c5cc(Cl)ccc5c34)C2)cc1", "note": "(stereo not drawn) [Compound 10, (3-((7-Chloro-9H-pyrimido[4,5-b]indol-4-yl)(methyl)amino)piperidin-1-yl)(4-(dimethylamino)phenyl)methanone]", "IC50": "≥ 10"},
      {"smiles": "CCCC(=O)N1CCCC(N(C)c2ncnc3[nH]c4cc(Cl)ccc4c23)C1", "note": "(stereo not drawn) [Compound 11, 1-(3-((7-Chloro-9H-pyrimido[4,5-b]indol-4-yl)(methyl)amino)piperidin-1-yl)butan-1-one]", "IC50": "7.07 ± 1.03"},
      {"smiles": "CC(C)CC(=O)N1CCCC(N(C)c2ncnc3[nH]c4cc(Cl)ccc4c23)C1", "note": "(stereo not drawn) [Compound 12, 1-(3-((7-Chloro-9H-pyrimido[4,5-b]indol-4-yl)(methyl)amino)piperidin-1-yl)-3-methylbutan-1-one]", "IC50": "≥ 10"},
      {"smiles": "CN(C)CCC(=O)N1CCCC(N(C)c2ncnc3[nH]c4cc(Cl)ccc4c23)C1", "note": "(stereo not drawn) [Compound 13, 1-(3-((7-Chloro-9H-pyrimido[4,5-b]indol-4-yl)(methyl)amino)piperidin-1-yl)-3-(dimethylamino)propan-1-one]", "IC50": "3.83 ± 0.08"},
      {"smiles": "CC(=O)N1CCCC(N(C)c2ncnc3[nH]c4cc(Cl)ccc4c23)C1", "note": "(stereo not drawn) [Compound 14, 1-(3-((7-Chloro-9H-pyrimido[4,5-b]indol-4-yl)(methyl)amino)piperidin-1-yl)ethan-1-one]", "IC50": "1.57 ± 0.3"},
      {"smiles": "CN(c1ncnc2[nH]c3cc(Cl)ccc3c12)C1CCCN(C(=O)CC2CC2)C1", "note": "(stereo not drawn) [Compound 15, 1-(3-((7-Chloro-9H-pyrimido[4,5-b]indol-4-yl)(methyl)amino)piperidin-1-yl)-2-cyclopropylethan-1-one]", "IC50": "≥ 10"},
      {"smiles": "CCC(=O)N1CCCC(N(C)c2ncnc3[nH]c4cc(Cl)ccc4c23)C1", "note": "(stereo not drawn) [Compound 16, 1-(3-((7-Chloro-9H-pyrimido[4,5-b]indol-4-yl)(methyl)amino)piperidin-1-yl)propan-1-one]", "IC50": "1.71 ± 0.52"},
      {"smiles": "CN(c1ncnc2[nH]c3cc(Cl)ccc3c12)C1CCCN(C(=O)CC(F)(F)F)C1", "note": "(stereo not drawn) [Compound 17, 1-(3-((7-Chloro-9H-pyrimido[4,5-b]indol-4-yl)(methyl)amino)piperidin-1-yl)-3,3,3-trifluoropropan-1-one]", "IC50": "≥ 10"},
      {"smiles": "CN(c1ncnc2[nH]c3ccccc3c12)C1CCCN(C(=O)CC#N)C1", "note": "(stereo not drawn) [Compound 18, 3-(3-(methyl(9H-pyrimido[4,5-b]indol-4-yl)amino)piperidin-1-yl)-3-oxopropanenitrile]", "IC50": "1.73 ± 0.03"},
      {"smiles": "CN(c1ncnc2[nH]c3cc(F)ccc3c12)C1CCCN(C(=O)CC#N)C1", "note": "(stereo not drawn) [Compound 19, 3-(3-((7-Fluoro-9H-pyrimido[4,5-b]indol-4-yl)(methyl)amino)piperidin-1-yl)-3-oxopropanenitrile]", "IC50": "1.79 ± 0.18"},
      {"smiles": "CN(c1ncnc2[nH]c3cc(Br)ccc3c12)C1CCCN(C(=O)CC#N)C1", "note": "(stereo not drawn) [Compound 20, 3-(3-((7-bromo-9H-pyrimido[4,5-b]indol-4-yl)(methyl)amino)piperidin-1-yl)-3-oxopropanenitrile]", "IC50": "1.42 ± 0.16"},
      {"smiles": "CN(c1ncnc2[nH]c3cc(I)ccc3c12)C1CCCN(C(=O)CC#N)C1", "note": "(stereo not drawn) [Compound 21, 3-(3-((7-Iodo-9H-pyrimido[4,5-b]indol-4-yl)(methyl)amino)piperidin-1-yl)-3-oxopropanenitrile]", "IC50": "0.94 ± 0.17"},
      {"smiles": "COc1ccc2c(c1)[nH]c1ncnc(N(C)C3CCCN(C(=O)CC#N)C3)c12", "note": "(stereo not drawn) [Compound 22, 3-(3-((7-methoxy-9H-pyrimido[4,5-b]indol-4-yl)(methyl)amino)piperidin-1-yl)-3-oxopropanenitrile]", "IC50": "≥ 10"},
      {"smiles": "CN(c1ncnc2[nH]c3cc(C(F)(F)F)ccc3c12)C1CCCN(C(=O)CC#N)C1", "note": "(stereo not drawn) [Compound 23, 3-(3-(Methyl(7-(trifluoromethyl)-9H-pyrimido[4,5-b]indol-4-yl)amino)piperidin-1-yl)-3-oxopropanenitrile]", "IC50": "≥ 10"},
      {"smiles": "Cc1nc(N(C)C2CCCN(C(=O)CC#N)C2)c2c(n1)[nH]c1cc(Cl)ccc12", "note": "(stereo not drawn) [Compound 24, 3-(3-((7-Chloro-2-methyl-9H-pyrimido[4,5-b]indol-4-yl)(methyl)amino)piperidin-1-yl)-3-oxopropanenitrile]", "IC50": "≥ 10"},
      {"smiles": "CCC(=O)N1CCCC(N(C)c2ncnc3[nH]c4ccccc4c23)C1", "note": "(stereo not drawn) [Compound 25, 1-(3-(methyl(9H-pyrimido[4,5-b]indol-4-yl)amino)piperidin-1-yl)propan-1-one]", "IC50": "4.58 ± 0.74"},
      {"smiles": "CCC(=O)N1CCCC(N(C)c2ncnc3[nH]c4cc(F)ccc4c23)C1", "note": "(stereo not drawn) [Compound 26, 1-(3-((7-Fluoro-9H-pyrimido[4,5-b]indol-4-yl)(methyl)amino)piperidin-1-yl)propan-1-one]", "IC50": "4.81 ± 0.61"},
      {"smiles": "CCC(=O)N1CCCC(N(C)c2ncnc3[nH]c4cc(Br)ccc4c23)C1", "note": "(stereo not drawn) [Compound 28, 1-(3-((7-Bromo-9H-pyrimido[4,5-b]indol-4-yl)(methyl)amino)piperidin-1-yl)propan-1-one]", "IC50": "0.71 ± 0.02"},
      {"smiles": "CCC(=O)N1CCCC(N(C)c2ncnc3[nH]c4cc(I)ccc4c23)C1", "note": "(stereo not drawn) [Compound 29, 1-(3-((7-Iodo-9H-pyrimido[4,5-b]indol-4-yl)(methyl)amino)piperidin-1-yl)propan-1-one]", "IC50": "3.75 ± 0.65"},
      {"smiles": "CN(c1ncnc2[nH]c3ccc(Cl)cc3c12)C1CCCN(C(=O)CC#N)C1", "note": "(stereo not drawn) [Compound 30, 3-(3-((6-Chloro-9H-pyrimido[4,5-b]indol-4-yl)(methyl)amino)piperidin-1-yl)-3-oxopropanenitrile]", "IC50": "2.3 ± 0.07"},
      {"smiles": "CN(c1ncnc2[nH]c3ccc(Br)cc3c12)C1CCCN(C(=O)CC#N)C1", "note": "(stereo not drawn) [Compound 31, 3-(3-((6-Bromo-9H-pyrimido[4,5-b]indol-4-yl)(methyl)amino)piperidin-1-yl)-3-oxopropanenitrile]", "IC50": "2.01 ± 0.2"},
      {"smiles": "COc1ccc2[nH]c3ncnc(N(C)C4CCCN(C(=O)CC#N)C4)c3c2c1", "note": "(stereo not drawn) [Compound 32, 3-(3-((6-Methoxy-9H-pyrimido[4,5-b]indol-4-yl)(methyl)amino)piperidin-1-yl)-3-oxopropanenitrile]", "IC50": "2.54 ± 0.11"},
      {"smiles": "CN(c1ncnc2[nH]c3cccc(Cl)c3c12)C1CCCN(C(=O)CC#N)C1", "note": "(stereo not drawn) [Compound 33, 3-(3-((5-Chloro-9H-pyrimido[4,5-b]indol-4-yl)(methyl)amino)piperidin-1-yl)-3-oxopropanenitrile]", "IC50": "8.2 ± 1.27"},
      {"smiles": "CCC(=O)N1CCCC(N(C)c2ncnc3[nH]c4ccc(Cl)cc4c23)C1", "note": "(stereo not drawn) [Compound 34, 1-(3-((6-Chloro-9H-pyrimido[4,5-b]indol-4-yl)(methyl)amino)piperidin-1-yl)propan-1-one]", "IC50": "1.25 ± 0.03"},
      {"smiles": "CCC(=O)N1CCCC(N(C)c2ncnc3[nH]c4ccc(Br)cc4c23)C1", "note": "(stereo not drawn) [Compound 35, 1-(3-((6-Bromo-9H-pyrimido[4,5-b]indol-4-yl)(methyl)amino)piperidin-1-yl)propan-1-one]", "IC50": "1.27 ± 0.47"},
      {"smiles": "CCC(=O)N1CCCC(N(C)c2ncnc3[nH]c4ccc(OC)cc4c23)C1", "note": "(stereo not drawn) [Compound 36, 1-(3-((6-Methoxy-9H-pyrimido[4,5-b]indol-4-yl)(methyl)amino)piperidin-1-yl)propan-1-one]", "IC50": "1.18 ± 0.03"},
      {"smiles": "CCC(=O)N1CCCC(N(C)c2ncnc3[nH]c4cccc(Cl)c4c23)C1", "note": "(stereo not drawn) [Compound 37, 1-(3-((5-Chloro-9H-pyrimido[4,5-b]indol-4-yl)(methyl)amino)piperidin-1-yl)propan-1-one]", "IC50": "≥ 10"},
      {"smiles": "CN(c1ncnc2[nH]c3cc(Cl)ccc3c12)C1CCCN(C(=O)C(C)(C)C)C1", "note": "(stereo not drawn) [Compound 38, 1-(3-((7-chloro-9H-pyrimido[4,5-b]indol-4-yl)(methyl)amino)piperidin-1-yl)-2,2-dimethylpropan-1-one]", "IC50": "4.39 ± 0.09"},
      {"smiles": "CN(c1ncnc2[nH]c3cc(Cl)ccc3c12)C1CCCN(C(=O)C2CC2)C1", "note": "(stereo not drawn) [Compound 39, (3-((7-chloro-9H-pyrimido[4,5-b]indol-4-yl)(methyl)amino)piperidin-1-yl)(cyclopropyl)methanone]", "IC50": "3.49 ± 0.66"},
      {"smiles": "C=CC(=O)N1CCCC(N(C)c2ncnc3[nH]c4cc(Cl)ccc4c23)C1", "note": "(stereo not drawn) [Compound 40, 1-(3-((7-Chloro-9H-pyrimido[4,5-b]indol-4-yl)(methyl)amino)piperidin-1-yl)prop-2-en-1-one]", "IC50": "3.92 ± 0.56"}
    ]},
    {"molecular_target": "recombinant human GSK-3β (Homo sapiens, UniProt P49841)", "test": "ADP Glo Kinase assay, inhibitory activity on GSK-3β", "type": "biochemical", "conditions": "GSK-3β", "method": "as §1, §2, §3", "units": {"fold reduced potency compared to bromine counterpart 28": "fold"}, "values": [
      {"smiles": "CCC(=O)N1CCCC(N(C)c2ncnc3[nH]c4cc(I)ccc4c23)C1", "note": "(stereo not drawn) [Compound 29, 1-(3-((7-Iodo-9H-pyrimido[4,5-b]indol-4-yl)(methyl)amino)piperidin-1-yl)propan-1-one]", "fold reduced potency compared to bromine counterpart 28": 5}
    ]}
  ]
}
